Reference: ChEMBL document CHEMBL1201862, “PubChem BioAssay data set” (2004)
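Values below derive from 48-hour exposures of cells grown in 96-well plates, with endpoints linearly interpolated between the two concentrations bracketing the appropriate inhibition level. Here, GI50 denotes the concentration required for 50% inhibition of growth.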 Active and inactive are the calls of the source. Rule as the data show it: active = GI50 up to about 1.1 µM and inactive = higher.

How the values were obtained:
Experiment in all cases: inhibition of tumour cell growth, NCI panel, 48 h
[1] = tested on: KM12
[2] = tested on: RPMI-8226
[3] = tested on: HOP-62
[4] = tested on: NCI/ADR-RES
[5] = tested on: MCF7
[6] = tested on: COLO 205
[7] = tested on: PC-3
[8] = tested on: SN12C
[9] = tested on: U-251
[10] = tested on: SF-268
[11] = tested on: OVCAR-3
[12] = tested on: UO-31
[13] = tested on: SW-620
[14] = tested on: TK-10
[15] = tested on: SK-OV-3
[16] = tested on: LOX IMVI
[17] = tested on: NCI-H226
[18] = tested on: K562
[19] = tested on: A549
[20] = tested on: HCC 2998

Measured: GI50

CCCC(C)NC(=O)c1ccc(N(C)Cc2cnc3nc(N)nc(N)c3n2)cc1 (stereo not given)
inactive: [1] 31.3 µM | [2] 91 µM | [3] 29.5 µM | [4] > 100 µM | [5] 23.3 µM | [6] 28.2 µM | [7] 9.84 µM | [8] 44.6 µM | [9] 14.8 µM | [10] 12 µM | [11] 21.4 µM | [12] 46.1 µM | [13] 28.4 µM | [14] 31.3 µM | [15] 41.6 µM | [16] 5.42 µM | [17] 19.1 µM | [18] 8 µM

O=C(C[N+]12CN3CN(CN(C3)C1)C2)c1ccc(-c2ccccc2)cc1
inactive: [1] 32 µM | [3] 23 µM | [4] 33.4 µM | [7] 16 µM | [8] 19.7 µM | [9] 16.8 µM | [19] 30.1 µM | [20] 15.4 µM | [10] 19.4 µM | [11] 29.3 µM | [12] 23.4 µM | [13] 8.67 µM | [14] 21.2 µM | [16] 15.3 µM | [17] 21.2 µM | [18] 15 µM

Cc1ccc2c(c1)nc(N)n[n+]2[O-]
inactive: [1] > 100 µM | [2] > 100 µM | [3] > 100 µM | [4] > 100 µM | [5] > 100 µM | [6] > 100 µM | [7] > 100 µM | [8] > 100 µM | [9] > 100 µM | [19] > 100 µM | [10] > 100 µM | [11] > 100 µM | [12] > 100 µM | [13] > 100 µM | [14] > 100 µM | [15] > 100 µM | [16] > 100 µM | [17] > 100 µM | [18] > 100 µM

COc1ccc2c(C(=O)c3c(C)n(CCN4CCOCC4)c4ccccc34)cccc2c1
inactive: [1] 22.9 µM | [2] 24.7 µM | [3] 71.9 µM | [4] 16.9 µM | [5] 11.3 µM | [6] 12.2 µM | [7] 12.7 µM | [8] 71 µM | [9] 15.3 µM | [19] 24.5 µM | [10] 16.1 µM | [11] 12.1 µM | [12] 34 µM | [13] 1.27 µM | [14] 58.5 µM | [15] 39.6 µM | [16] 18.9 µM | [17] > 100 µM | [18] 18.7 µM

Cc1cc(Cl)nc2ccc(Cc3ccc4nc(Cl)cc(C)c4c3)cc12
inactive: [1] > 100 µM | [2] 36.6 µM | [3] 18.5 µM | [4] 33.5 µM | [5] 19.1 µM | [6] > 100 µM | [7] 42.7 µM | [8] 85.1 µM | [9] 16.2 µM | [19] 47.5 µM | [10] 43.2 µM | [11] 39.3 µM | [12] 37.6 µM | [13] > 100 µM | [14] 20.7 µM | [15] 14 µM | [16] 56.5 µM | [17] 93.3 µM | [18] > 100 µM

C/C(=C/CC[C@](C)(OC1OC(CO)C(O)C(O)C1OC1OC(C)C(O)C(O)C1O)[C@H]1CC[C@]2(C)[C@@H]1CC[C@@H]1[C@@]3(C)CC[C@H](O)C(C)(C)[C@@H]3C[C@H](O)[C@]12C)CO (stereo not given in full)
inactive: [1] > 100 µM | [2] > 100 µM | [3] > 100 µM | [4] > 100 µM | [5] > 100 µM | [6] > 100 µM | [7] > 100 µM | [8] > 100 µM | [9] > 100 µM | [19] > 100 µM | [10] > 100 µM | [11] > 100 µM | [12] > 100 µM | [13] > 100 µM | [14] > 100 µM | [15] > 100 µM | [16] > 100 µM | [17] > 100 µM | [18] > 100 µM

Nc1nc(Cl)cc(NCC2(CO)CCC(O)C2)n1 (stereo not given)
inactive: [1] > 100 µM | [2] > 100 µM | [3] > 100 µM | [4] > 100 µM | [5] > 100 µM | [6] > 100 µM | [7] > 100 µM | [8] > 100 µM | [9] > 100 µM | [19] > 100 µM | [10] > 100 µM | [11] > 100 µM | [12] > 100 µM | [13] > 100 µM | [14] > 100 µM | [15] > 100 µM | [16] > 100 µM | [17] > 100 µM | [18] > 100 µM

CC1CC(N2CCOCC2)=Nc2ccccc2N1Cc1ccccc1 (stereo not given)
inactive: [1] 68.7 µM | [2] 48.2 µM | [3] 58.1 µM | [4] 73.8 µM | [6] 30.9 µM | [7] 50.6 µM | [8] > 100 µM | [9] > 100 µM | [19] > 100 µM | [10] 74 µM | [11] 43.9 µM | [12] > 100 µM | [13] > 100 µM | [14] > 100 µM | [15] 61.2 µM | [16] 43.9 µM | [17] 51.2 µM | [18] 19 µM

NC(Cc1ccccc1)P(=O)(O)O (stereo not given)
inactive: [1] > 100 µM | [2] > 100 µM | [3] > 100 µM | [4] > 100 µM | [7] > 100 µM | [8] > 100 µM | [9] > 100 µM | [19] > 100 µM | [10] > 100 µM | [11] > 100 µM | [12] > 100 µM | [13] > 100 µM | [14] > 100 µM | [16] > 100 µM | [17] > 100 µM | [18] > 100 µM

Cc1cc(Cl)cc2c1NC(=O)/C2=N\Nc1ccccc1[N+](=O)[O-]
inactive: [1] > 100 µM | [2] > 100 µM | [3] 50.5 µM | [5] > 100 µM | [6] > 100 µM | [7] 38.8 µM | [8] > 100 µM | [9] > 100 µM | [19] > 100 µM | [20] > 100 µM | [10] > 100 µM | [11] > 100 µM | [12] > 100 µM | [13] > 100 µM | [14] > 100 µM | [15] > 100 µM | [16] 84.7 µM | [18] > 100 µM

N#C/N=C(/NCCc1c[nH]c2ccccc12)Oc1ccccc1
inactive: [1] 40.8 µM | [2] 37.7 µM | [3] > 100 µM | [6] 59 µM | [8] > 100 µM | [9] > 100 µM | [19] 60.4 µM | [20] 44 µM | [10] > 100 µM | [11] > 100 µM | [12] 23.4 µM | [13] > 100 µM | [14] 84.5 µM | [15] > 100 µM | [16] 77.4 µM | [17] 77.3 µM | [18] 26.8 µM

COc1ccc(NC(C)=O)c(C(O)CCNC(C)=O)c1 (stereo not given)
inactive: [1] > 100 µM | [2] > 100 µM | [4] > 100 µM | [5] > 100 µM | [6] > 100 µM | [7] > 100 µM | [8] > 100 µM | [9] > 100 µM | [19] > 100 µM | [10] > 100 µM | [11] > 100 µM | [12] > 100 µM | [13] > 100 µM | [14] > 100 µM | [15] > 100 µM | [16] > 100 µM | [17] > 100 µM

N#CCc1nc(O)c2ccccc2n1
inactive: [1] > 100 µM | [3] > 100 µM | [4] > 100 µM | [5] 28.1 µM | [6] 98.9 µM | [7] > 100 µM | [8] > 100 µM | [9] > 100 µM | [19] > 100 µM | [20] > 100 µM | [11] 69.7 µM | [12] > 100 µM | [13] > 100 µM | [14] > 100 µM | [15] > 100 µM | [16] 56.4 µM | [17] > 100 µM

O=S(=O)(c1cc(Cl)ccc1Cl)N1CCN(S(=O)(=O)c2cc(Cl)ccc2Cl)CC1
inactive: [1] > 100 µM | [3] > 100 µM | [4] > 100 µM | [5] > 100 µM | [7] > 100 µM | [8] > 100 µM | [9] > 100 µM | [19] > 100 µM | [20] > 100 µM | [10] > 100 µM | [11] > 100 µM | [12] > 100 µM | [13] > 100 µM | [14] > 100 µM | [17] > 100 µM | [18] > 100 µM

Cc1cc2c(cc1Br)C1(C)CCC(C)C1(C)O2 (stereo not given)
inactive: [1] 31.6 µM | [2] 14 µM | [3] 30.3 µM | [6] 16.3 µM | [8] 24.9 µM | [9] 21.8 µM | [19] 36.5 µM | [20] 43 µM | [10] 34 µM | [11] 21.7 µM | [12] 32.4 µM | [13] 40.1 µM | [14] > 100 µM | [15] 53.3 µM | [16] 18.6 µM | [17] 19.8 µM | [18] 17.3 µM
